Measured values reported in the NIST ThermoML archive (doi:10.1021/je101014q).
± gives the expanded uncertainty stated by the source.

Experiment: xn = mol fraction of the nth substance listed
Conditions: 101 kPa, Liquid, Cone and plate viscometry

CC(=O)[O-].CCCC[N+](CC)(CC)CC [N,N,N-triethylbutanaminium acetate] + O
viscosity [mPa·s]
Conditions	x1 = 0.17	x1 = 0.33	x1 = 0.5	x1 = 1
298.2 K	13 ± 1	66 ± 2	79 ± 3	439 ± 23
313.2 K	10.9 ± 0.4	39.4 ± 1.3	55.5 ± 1.8	306.7 ± 14
333.2 K	5.15 ± 0.18	12.6 ± 0.5	15.6 ± 0.6	47.3 ± 3
